Measurements taken from patent publication US20240228501A1, “IMIDAZOLE-CONTAINING CONDENSED RING DERIVATIVE, PREPARATION METHOD THEREFOR, AND APPLICATION THEREOF IN MEDICINE” (CHANGCHUN GENESCIENCE PHARMACEUTICAL CO., LTD., priority 2021, published 2024).

Target: T1, human NK-3 receptor (Homo sapiens, UniProt P29371)
T1 construct: expressed in transfected cells; host or cells: HEK293
T1 sequence (P29371 1-465): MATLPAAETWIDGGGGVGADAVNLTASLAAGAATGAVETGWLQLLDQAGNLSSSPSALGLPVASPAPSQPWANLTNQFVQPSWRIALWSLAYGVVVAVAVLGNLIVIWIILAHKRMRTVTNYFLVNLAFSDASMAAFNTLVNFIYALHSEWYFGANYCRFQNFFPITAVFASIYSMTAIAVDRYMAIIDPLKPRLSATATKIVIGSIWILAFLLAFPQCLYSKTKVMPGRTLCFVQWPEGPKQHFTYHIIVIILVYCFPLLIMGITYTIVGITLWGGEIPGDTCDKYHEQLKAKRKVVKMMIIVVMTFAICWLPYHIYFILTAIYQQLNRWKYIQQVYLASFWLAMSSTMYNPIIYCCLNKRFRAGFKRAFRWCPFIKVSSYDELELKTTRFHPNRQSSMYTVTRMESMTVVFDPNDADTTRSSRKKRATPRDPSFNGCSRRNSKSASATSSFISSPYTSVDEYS
Test: Antagonistic activity on human NK-3 receptor in human NK-3R/HEK293 stably transfected cells (Fluo-4, FLIPR, Neurokinin B as agonist)
Type: cell-based
Conditions: human NK-3R/HEK293 cells
Procedure: Test Example 1: Determination of Activity of Compounds of the Present Invention on Human NK-3 Receptor
This method is used to determine antagonistic effects of the compounds of the present invention on the activity of human NK-3 receptor proteins expressed in cell lines stably transfected with human NK-3R/HEK293.
2.1 The cell lines stably transfected with human NK-3R/HEK293 were inoculated in a 384-well cell culture plate at a inoculation density of 12,000 cells/well/25 μL, and cultured at 37° C. and 5% CO2 overnight;
2.2 20× Component A was frozen and thawed to room temperature, diluted 2× with Assay Buffer to working concentration, and kept at room temperature for later use;
2.3 The cell culture plate was equilibrated at room temperature for 10 min, the culture medium was removed, and 20 μL of Assay Buffer and 20 μL of 2× Component A […] were added, followed by centrifugation at 200 g at room temperature for 3-5 sec, and incubation at 37° C. for 2 h;
2.4 The compound was diluted 3 times with DMSO in 384 PP_DMSO plate, and then 240 nl/well of the compound was transferred into a working plate with Echo 550, centrifugated at 200 g at room temperature for 1 min; 40 μl of Assay Buffer was added into the working plate, centrifugated at 200 g at room temperature for 1 min, and then fully mixed in an oscillator at 2500 rpm for 20 min, and then centrifugated at 200 g at room temperature for 1 min for later use;
2.5 2.5 nM Neurokinin B TFA (6×) was prepared from Assay Buffer, 50 uL of which was transferred onto 3657 plate for later use;
2.6 The cell culture plate was taken out and left to stand at room temperature for 10 min, then […] the compound diluted in step 2.4 was added into corresponding wells, and the cell culture plate was left to stand at 25° C. for 30 min; and
2.7 10 μL of the compound diluted in step 2.5 was added into the corresponding experimental wells with FLIPR Tetra, and data was collected.
The antagonistic activity of the compounds of the present invention on the human NK-3 receptor was determined through the above experiments, to obtain inhibition curves of the compounds of the present invention and determine concentrations (IC50) of the corresponding compounds that inhibit 50% of the reference agonist.

Row | SMILES | IC50 [nM]
1 | COCCc1nc(-c2nc(C)ns2)n2c1C(C)N(C(=O)c1ccc(F)cc1)CC2 (racemic) [Compound 204, rac-(R)-(4-fluorophenyl)(1-(2-methoxyethyl)-8-methyl-3-(3-methyl-1,2,4-thiadiazol-5-yl)-5,6-dihydroimidazo[1,5-a]pyrazin-7 (8H)-yl)methanone] | 109
2 | Cc1nsc(-c2nc(-c3ccncc3)c3n2CCN(C(=O)c2ccc(F)cc2)C3C)n1 (centres unmarked) [Compound 005, (4-fluorophenyl)(8-methyl-3-(3-methyl-1,2,4-thiadiazol-5-yl)-1-(pyridin-4-yl)-5,6-dihydroimidazo[1,5-a]pyrazin-7 (8H)-yl)methanone] | 64.6
3 | CC(=O)N(C)c1nc(-c2nc(C)ns2)n2c1C(C)N(C(=O)c1ccc(F)cc1)CC2 (centres unmarked) [Compound 010, N-(7-(4-fluorobenzoyl)-8-methyl-3-(3-methyl-1,2,4-thiadiazol-5-yl)-5,6,7,8-tetrahydroimidazo[1,5-a]pyrazin-1-yl)-N-methylacetamide] | 33.4
4 | Cc1nsc(-c2nc(-c3ccncc3)c3n2CCN(C(=O)c2ccc(F)cc2)[C@@H]3C)n1 [Compound 026, (R)-(4-fluorophenyl)(8-methyl-3-(3-methyl-1,2,4-thiadiazol-5-yl)-1-(pyridin-4-yl)-5,6-dihydroimidazo[1,5-a]pyrazin-7 (8H)-yl)methanone] | 35
5 | Cc1nsc(-c2nc(-c3ccncn3)c3n2CCN(C(=O)c2ccc(F)cc2)[C@@H]3C)n1 [Compound 027, (R)-(4-fluorophenyl)(8-methyl-3-(3-methyl-1,2,4-thiadiazol-5-yl)-1-(pyrimidin-4-yl)-5,6-dihydroimidazo[1,5-a]pyrazin-7 (8H)-yl)methanone] | 29.7
6 | Cc1nsc(-c2nc(-c3ccnnc3)c3n2CCN(C(=O)c2ccc(F)cc2)[C@@H]3C)n1 [Compound 028, (R)-(4-fluorophenyl)(8-methyl-3-(3-methyl-1,2,4-thiadiazol-5-yl)-1-(pyridazin-4-yl)-5,6-dihydroimidazo[1,5-a]pyrazin-7 (8H)-yl)methanone] | 56.3
7 | Cc1nsc(-c2nc(N3CCOCC3)c3n2CCN(C(=O)c2ccc(F)cc2)[C@@H]3C)n1 [Compound 033, (R)-(4-fluorophenyl)(8-methyl-3-(3-methyl-1,2,4-thiadiazol-5-yl)-1-morpholino-5,6-dihydroimidazo[1,5-a]pyrazin-7 (8H)-yl)methanone] | 50.6
8 | Cc1nsc(-c2nc(NS(C)(=O)=O)c3n2CCN(C(=O)c2ccc(F)cc2)[C@@H]3C)n1 [Compound 040, (R)—N-(7-(4-fluorobenzoyl)-8-methyl-3-(3-methyl-1,2,4-thiadiazol-5-yl)-5,6,7,8-tetrahydroimidazo[1,5-a]pyrazin-1-yl)methanesulfonamide] | 51.7
9 | Cc1cc(-c2nc(-c3nc(C)ns3)n3c2[C@@H](C)N(C(=O)c2ccc(F)cc2)CC3)ccn1 [Compound 043, (R)-(4-fluorophenyl)(8-methyl-3-(3-methyl-1,2,4-thiadiazol-5-yl)-1-(2-methylpyridin-4-yl)-5,6-dihydroimidazo[1,5-a]pyrazin-7 (8H)-yl)methanone] | 29.6
10 | Cc1nsc(-c2nc(-c3ccncc3F)c3n2CCN(C(=O)c2ccc(F)cc2)[C@@H]3C)n1 [Compound 046, (R)-(4-fluorophenyl)(1-(3-fluoropyridin-4-yl)-8-methyl-3-(3-methyl-1,2,4-thiadiazol-5-yl)-5,6-dihydroimidazo[1,5-a]pyrazin-7 (8H)-yl)methanone] | 7.02
11 | Cc1nsc(-c2nc(-c3cc(F)nc(F)c3)c3n2CCN(C(=O)c2ccc(F)cc2)[C@@H]3C)n1 [Compound 053, (R)-(1-(2,6-difluoropyridin-4-yl)-8-methyl-3-(3-methyl-1,2,4-thiadiazol-5-yl)-5,6-dihydroimidazo[1,5-a]pyrazin-7 (8H)-yl)(4-fluorophenyl)methanone] | 20.2
12 | CC(=O)N(C)c1nc(-c2nc(C)ns2)n2c1[C@@H](C)N(C(=O)c1ccc(F)cc1)CC2 [Compound 060, (R)—N-(7-(4-fluorobenzoyl)-8-methyl-3-(3-methyl-1,2,4-thiadiazol-5-yl)-5,6,7,8-tetrahydroimidazo[1,5-a]pyrazin-1-yl)-N-methylacetamide] | 26.9
13 | Cc1nsc(-c2nc(-c3c(F)cccc3F)c3n2CCN(C(=O)c2ccc(F)cc2)[C@@H]3C)n1 [Compound 063, (R)-(1-(2,6-difluorophenyl)-8-methyl-3-(3-methyl-1,2,4-thiadiazol-5-yl)-5,6-dihydroimidazo[1,5-a]pyrazin-7 (8H)-yl)(4-fluorophenyl)methanone] | 47.6
14 | Cc1nsc(-c2nc(N(C)S(C)(=O)=O)c3n2CCN(C(=O)c2ccc(F)cc2)[C@@H]3C)n1 [Compound 064, (R)—N-(7-(4-fluorobenzoyl)-8-methyl-3-(3-methyl-1,2,4-thiadiazol-5-yl)-5,6,7,8-tetrahydroimidazo[1,5-a]pyrazin-1-yl)-N-methylmethanesulfonamide] | 80.1
15 | Cc1nsc(-c2nc(N3CCCCC3=O)c3n2CCN(C(=O)c2ccc(F)cc2)[C@@H]3C)n1 [Compound 069, (R)-1-(7-(4-fluorobenzoyl)-8-methyl-3-(3-methyl-1,2,4-thiadiazol-5-yl)-5,6,7,8-tetrahydroimidazo[1,5-a]pyrazin-1-yl)piperidin-2-one] | 7.43
16 | Cc1nsc(-c2nc(N3CCOCC3=O)c3n2CCN(C(=O)c2ccc(F)cc2)[C@@H]3C)n1 [Compound 072, (R)-4-(7-(4-fluorobenzoyl)-8-methyl-3-(3-methyl-1,2,4-thiadiazol-5-yl)-5,6,7,8-tetrahydroimidazo[1,5-a]pyrazin-1-yl)morpholin-3-one] | 16.8
17 | COc1cc(-c2nc(-c3nc(C)ns3)n3c2[C@@H](C)N(C(=O)c2ccc(F)cc2)CC3)ccn1 [Compound 080, (R)-(1-(2-methoxypyridin-4-yl)-8-methyl-3-(3-methyl-1,2,4-thiadiazol-5-yl)-5,6-dihydroimidazo[1,5-a]pyrazin-7 (8H)-yl)(4-fluorophenyl)methanone] | 84.5
18 | Cc1nsc(-c2nc(N3CCN(C)CC3=O)c3n2CCN(C(=O)c2ccc(F)cc2)[C@@H]3C)n1 [Compound 084] | 23.7
19 | COCC(=O)Nc1nc(-c2nc(C)ns2)n2c1[C@@H](C)N(C(=O)c1ccc(F)cc1)CC2 [Compound 089, (R)—N-(7-(4-fluorobenzoyl)-8-methyl-3-(3-methyl-1,2,4-thiadiazol-5-yl)-5,6,7,8-tetrahydroimidazo[1,5-a]pyrazin-1-yl)-2-methoxyacetamide] | 58.6
20 | Cc1nsc(-c2nc(N3CC=CC3=O)c3n2CCN(C(=O)c2ccc(F)cc2)[C@@H]3C)n1 [Compound 096, (R)-1-(7-(4-fluorobenzoyl)-8-methyl-3-(3-methyl-1,2,4-thiadiazol-5-yl)-5,6,7,8-tetrahydroimidazo[1,5-a]pyrazin-1-yl)-1,5-dihydro-2H-pyrrol-2-one] | 67.9
21 | Cc1nsc(-c2nc(N3Cc4ccccc4CC3=O)c3n2CCN(C(=O)c2ccc(F)cc2)[C@@H]3C)n1 [Compound 100, (R)-2-(7-(4-fluorobenzoyl)-8-methyl-3-(3-methyl-1,2,4-thiadiazol-5-yl)-5,6,7,8-tetrahydroimidazo[1,5-a]pyrazin-1-yl)-1,4-dihydroisoquinolin-3 (2H)-one] | 51.9
22 | Cc1nsc(-c2nc(N3CCOC3=O)c3n2CCN(C(=O)c2ccc(F)cc2)[C@@H]3C)n1 [Compound 101, (R)-3-(7-(4-fluorobenzoyl)-8-methyl-3-(3-methyl-1,2,4-thiadiazol-5-yl)-5,6,7,8-tetrahydroimidazo[1,5-a]pyrazin-1-yl)oxazolidin-2-one] | 20.2
23 | Cc1nsc(-c2nc(N3C[C@H](O)CC3=O)c3n2CCN(C(=O)c2ccc(F)cc2)[C@@H]3C)n1 [Compound 103, (R)-1-((R)-7-(4-fluorobenzoyl)-8-methyl-3-(3-methyl-1,2,4-thiadiazol-5-yl)-5,6,7,8-tetrahydroimidazo[1,5-a]pyrazin-1-yl)-4-hydroxypyrrolidin-2-one] | 5.7
